From patent US20220211698A1, “ANTI MALARIAL COMPOUNDS” (INSTITUTO DE MEDICINA MOLECULAR, priority 2020, published 2022)
Entries after “also recorded” stand apart in the source; their conditions may differ.

Columns and labels:
[1] = Solubility in DMSO; assay type: physicochemical
[2] = target: Microtubule-associated protein 1A/1B-light chain 3 (LC3), purified recombinant (UniProt Q9GZQ8); experiment: ITC, 100 µM LC3 titrated into 10 µM PfUIS3, 25 °C, one-site model
[3] = test system: P. berghei; experiment: Sporozoite invasion of Huh7 cells, EEFs at 2 h post-infection by flow cytometry; assay type: cell-based; conditions: 1 μM, added 2 h before infection
Method: FIG. 5E is a bar graph showing the effect of 1 μM C4 on P. berghei numbers in Huh7 cells as quantified by number of EEFs at 2 h post-infection. C4 was added to the cells 2 h before infection. EEFs were quantitated using flow cytometry. Data represent means±SEM (n=3). Non-parametric two-tailed Mann-Whitney test was used to compare the effect of DMSO control and C4. ns: non-significant.
(§1) To perform the flow cytometry analysis, Huh7 cells were seeded on a 24 well plate (50,000 cells/well) in RPMI and DMEM media respectively. The next day, media was replaced with different compounds (10 μM)/C4 (various conc.)/1 μM C4/1 μM C4+50 μM Chloroquine containing media, as appropriate in different experiments. Cells were then infected with P. bergehi/PfUIS3@Pb parasites and analysed by flow cytometry at 2 h/24 h post infection. DMSO was used as control and Primaquine was used as the positive control. For flow cytometry, infected cells were trypsinized and resuspended in 300 μl of media. 50 μl of each sample were analysed on BD Accuri C6 as described in Hanson et al. Data were analysed using FlowJo software.

[4] = test system: P. berghei ANKA; experiment: P. berghei infection of Huh7 cells (luciferase parasite load / flow cytometry EEF count); assay type: cell-based
Method: (§2) The PHS was performed using Huh7 cells infected with sporozoites from either parasite lines with or without adding each of the compounds, at a concentration of 10 μM, 2 h before sporozoite addition. Infection level was determined either by measuring luminescent levels of the GFP and firefly luciferase-expressing P. berghei ANKA (676m1cl1), (obtained from the Leiden Malaria Research Group) or the number of GFP-positive infected cells by flow cytometry, representing Plasmodium exo-erythrocytic form, EEF, (as PfUIS3@Pb parasite line express GFP).
as §1
The IC50 for C4 in P. berghei ANKA-infected and PfUIS3@Pb-infected cells at 24 h. Post-infection was 93.3 nM and 188.2 nM, respectively. To analyze C4 dose-dependent effect, media were replaced with DMSO (0.0001%)/C4 (various conc.)-containing media. After 2 h, cells were infected with luciferase-expressing P. berghei sporozoites (10,000/well) and processed for Luciferase assay at 24 h post-infection. Flow cytometry was used to determine EEF counts.

[5] = test system: HeLa cells; experiment: Starvation-induced autophagy in HeLa cells, p62 immunoblot; assay type: cell-based; conditions: 1 μM for 24 h, then EBBS amino-acid starvation 7 h
Method: FIG. 8B is a bar graph showing the p62 levels before and after amino acid starvation were calculated as the ratio of p62 to y tubulin (loading control). Data represent means±SEM (n=2). Statistical significance was assessed using the unpaired two-tailed t-test. ns: non-significant.
As C4 acts on a protein-protein interaction at the host-parasite interface, the effect of C4 administration on host cell normal autophagy activity was determined. To that end, autophagy was induced in HeLa cells in the presence and absence of C4.
To perform the foregoing study, HeLa cells (ATCC), which had been maintained under standard culture conditions in DMEM medium supplemented with 10% FCS, 1% glutamine, 1% penicillin/streptomycin, were treated with 1 μM C4 or 0.0001% DMSO (control) for 24 h, and then changed from normal growth medium to EBBS to induce amino-acid starvation dependent autophagy. After 7 h, cells were collected in lysis buffer (50 mM NaCl, 50 mM Tris-Cl pH 8, 5 mM EDTA pH 8, 1% Triton X-100, protease inhibitor) and analysed by western blot using the following antibodies: p62 (rabbit polyclonal, Sigma-Aldrich, P0067, 1:1000) and gamma-tubulin (mouse monoclonal, Sigma-Aldrich, T5326, 1: 10,000). p62 levels were measured by quantifying the ratio of p62 to tubulin signals using Image Lab.

[6] = test system: PfUIS3@Pb; experiment: PfUIS3@Pb infection of Huh7 cells (flow cytometry EEF count); assay type: cell-based, P. berghei expressing P. falciparum UIS3; conditions: 24 h post-infection
From the text: The following two Plasmodium parasite strains were used in the PHS: i) the rodent wild-type (WT) GFP expressing P. berghei ANKA parasite strain (259cl2, obtained from the Leiden Malaria Research Group); and ii) the parasite line, PfUIS3@Pb, created by inserting the gene encoding P. falciparum UIS3 with an added a 2 HA tag (UIS3-HA) into the P. berghei parasite (507cl1, obtained from the Leiden Malaria Research Group) at the UIS3 locus under the control of native 5′ and 3′ regulatory sequences. More particularly, to replace the P. berghei UIS3 open reading frame (ORF) with UIS3 ORF of P. falciparum, a double crossover recombination was performed as described in FIG. 2A. Transfection was carried out by electroporation of purified schizonts as previously described. […]
as §2, with “GFP). […]” for “GFP).”

[7] = target: UIS3-LC3 complex (Plasmodium falciparum, UniProt Q8IEU1); experiment: Isothermal calorimetry (ITC), C4 titrated into saturated solution of UIS3 with LC3; assay type: binding, P. falciparum
[8] = test system: PfUIS3@Pb; experiment: Immunofluorescence microscopy of EEF number and size, PfUIS3@Pb-infected Huh7 cells; assay type: cell-based, P. berghei expressing P. falciparum UIS3; conditions: 1 μM
Method: (§3) To assess C4 effect on EEF number and size, Huh7 cells were plated on glass coverslips (40,000/cover slip), treated with 1 μM C4 or 0.0001% DMSO (control) and after 2 h infected with P. berghei/PfUIS3@Pb sporozoites (40,000/cover slip). Huh7 cells (obtained from ATCC) were cultured under standard conditions in RPMI 1640 and DMEM medium (Gibco Invitrogen) respectively supplemented with 10% FCS, 1% glutamine, 1% non-essential amino acids (RPMI 1640), 1% penicillin/streptomycin, and 1% Hepes (RPMI 1640).
(§4) To characterize PfUIS3@Pb parasite line, Huh7 cells were seeded on cover slips as above and infected with WT (P. berghei ANKA (507cl1)/PfUIS3@Pb sporozoites (40,000/cover slip). After 24 h, cells were fixed in 4% paraformaldehyde (ChemCruz) for 15 min at room temperature (RT), permeabilized/blocked (PBS, 0.1% Triton X-100, 1% BSA) for 1 h at RT and incubated with primary antibodies (diluted in blocking solution) for overnight at 4° C. Cells were then washed with PBS, incubated with AlexaFluor-conjugated secondary antibodies (Jackson ImmunoResearch Laboratories) and Hoechst 33342 (Invitrogen) for 1 h at RT and washed again. The coverslips were mounted with Fluoromount (SouthernBiotech). […] GFP signal was detected using AlexaFluor 488 conjugated anti GFP (rabbit polyclonal, Invitrogen, A-21311, 1:500) antibody. […] All images were processed and analysed using ImageJ.

[9] = test system: P. berghei ANKA; experiment: Immunofluorescence microscopy of EEF number and size, P. berghei-infected Huh7 cells; assay type: cell-based; conditions: 1 μM
Method: as §3, §4

[10] = test system: P. berghei; experiment: P. berghei infection in Atg5+/+ and Atg5-/- mouse embryonic fibroblasts; assay type: cell-based; conditions: 10 μM
Method: Data represent means±SEM (n=3). Statistical significance was assessed using the unpaired two-tailed t-test. ns: non-significant, **** P<0.0001.
To test the hypothesis that high-affinity binding of C4 to the UIS3-LC3 complex could interfere with the function of the UIS3-LC3 complex to cause a decrease Plasmodium infection by interfering with the parasite's ability to evade host cell autophagy, genetic and chemicals tools were used to assess the anti-parasitic activity of C4 in autophagy-competent and autophagy-deficient cells.
MEFs used in these studies were obtained from the Riken BioResource Research Center (Atg5^+/+ (RCB2710) and Atg5^−/− (RCB2711). (Kuma et al.) MEFs were cultured in DMEM supplemented as described above for Huh7 cells. MEFs were validated through quantitative reverse transcription PCR.

[11] = test system: PfUIS3@Pb; experiment: Reversal of C4 effect by autophagy inhibitor, PfUIS3@Pb-infected Huh7 cells; assay type: cell-based, P. berghei expressing P. falciparum UIS3; conditions: 50 μM with 1 μM C4, added 2 h before infection, 24 h post-infection
Method: C4 and Chloroquine were added to the cells 2 h before infection. The effect was analysed at 24 h post-infection using flow cytometry by quantifying the EEFs number in infected cells. Data represent means±SEM. Pooled data from 4 independent experiments are presented. Statistical significance was assessed using the unpaired two-tailed t-test. *** P<0.001, **** P<0.0001.
as §1, with “software. […]” for “software.”

[12] = test system: P. berghei; experiment: Reversal of C4 effect by autophagy inhibitor, P. berghei-infected Huh7 cells; assay type: cell-based; conditions: 50 μM with 1 μM C4, added 2 h before infection, 24 h post-infection

## Cc1ccc(C)c(NC(=O)N2CCN(c3ccc(-c4noc(C5CCCCC5)n4)cc3)CC2)c1 [Compound C9]
[1]
  Solubility in DMSO: insolubilities in DMSO

## Cc1c/c(=N\C(=O)N2CCC3(CC2)OCCO3)nc2c3ccccc3oc(O)c1-2 [Compound C8]
[1]
  Solubility in DMSO: insolubilities in DMSO

## Plasmodium falciparum Upregulated in infective sporozoites 3 (UIS3), purified recombinant myc-UIS3
[2]
  Kd: 2150 nM

## N#Cc1ccc(C(=O)N2CCN(Cc3ccc(-c4noc(-c5cccc(C(F)(F)F)c5)n4)cc3)CC2)cc1 [Compound C4]
[3]
  Effect on sporozoite invasion of host cells: did not affect
[4]; 1 μM, from very early time-point, maintained through at least 48 h post-infection
  Effect on infection over time: decreased infection
[4]; 10 μM, added 2 h before infection, 24 h post-infection, Huh7 cells
  Parasite load / decrease in infection in phenotypic screen: most effective compound; also recorded: highest decrease in infection
[4]; Plasmodium berghei, Huh-7, P. berghei ANKA-infected Huh7 cells, 24 h post-infection, luciferase assay
  IC50: 93.3 nM
[5]
  Host cell response to exogenous autophagy stimulus (p62 levels): does not cause any impairment
[6]; 10 μM, added 2 h before infection, Huh7 cells
  Number of EEFs / decrease in infection in phenotypic screen: most effective compound; also recorded: highest decrease in infection
[6]; PfUIS3@Pb-infected Huh7 cells, flow cytometry
  IC50: 188 nM
[7]
  Affinity to UIS3-LC3 complex relative to direct UIS3-LC3 interaction: 10 fold
[7]; 25° C., one-site binding model, 100 μM C4 into UIS3 saturated with LC3
  Kd: 241 ± 1.1 nM
[8]
  Parasite development, as measured by parasite area: modest impact
[8]; added 2 h before infection
  Number of infected cells (microscopy): significant decrease
[9]
  Parasite development, as measured by parasite area: modest impact
[9]; added 2 h before infection
  Number of infected cells (microscopy): significant decrease
[10]; autophagy-deficient cells
  Reduction in infection in Atg5−/− MEFs: did not cause any reduction in infection
[10]; control cells
  Impact on infection in Atg5+/+ MEFs: comparable to that observed for infected Huh7 cells

## CCN(CC)CCCC(C)Nc1ccnc2cc(Cl)ccc12 (stereo not shown) [Chloroquine]
[11]
  Reversal of anti-parasitic effect of C4 (EEF number): can be reverted
[11]; listed as chloroquine
  Reversal of anti-parasitic effect of C4 (EEF number): rescued the C4 effect
[12]
  Reversal of anti-parasitic effect of C4 (EEF number): can be reverted
[12]; listed as chloroquine
  Reversal of anti-parasitic effect of C4 (EEF number): rescued the C4 effect
